Results from ChEMBL document CHEMBL2062516, “Design, synthesis and antibacterial activities of a series of new 2-oxaisocephems” (2012).
Converted amounts (≈) assume the structure as drawn.

Assays:
Format in all cases: functional
Staphylococcus aureus [1] = experiment: Antibacterial activity against Staphylococcus aureus ATCC 25923
[2] = test system: Staphylococcus epidermidis; experiment: Antibacterial activity against Staphylococcus epidermidis
Escherichia coli = experiment: Antibacterial activity against Escherichia coli ATCC 25922
Pseudomonas aeruginosa [3] = experiment: Antibacterial activity against Pseudomonas aeruginosa ATCC 27853
Klebsiella pneumoniae = experiment: Antibacterial activity against Klebsiella pneumoniae
Staphylococcus aureus [4] = experiment: Ratio MIC for ceftazidime to compound MIC for Staphylococcus aureus ATCC 25923
Pseudomonas aeruginosa [5] = experiment: Ratio MIC for ceftazidime to compound MIC for Pseudomonas aeruginosa ATCC 27853

SMILES	MIC (Staphylococcus aureus [1]) [µg/mL]	MIC [2] [µg/mL]	MIC (Escherichia coli) [µg/mL]	MIC (Pseudomonas aeruginosa [3]) [µg/mL]	MIC (Klebsiella pneumoniae) [µg/mL]	Ratio (Staphylococcus aureus [4])	Ratio (Pseudomonas aeruginosa [5])
CO/N=C(\C(=O)N[C@@H]1C(=O)N2C(C(=O)O)=C(CSc3nncs3)OC[C@H]12)c1nsc(N)n1	64 (≈ 128 µM)	16 (≈ 32.1 µM)	64 (≈ 128 µM)	32 (≈ 64.2 µM)	8 (≈ 16 µM)	–	–
CCO/N=C(\C(=O)N[C@@H]1C(=O)N2C(C(=O)O)=C(CSc3nncs3)OC[C@H]12)c1nsc(N)n1	64 (≈ 125 µM)	128 (≈ 250 µM)	128 (≈ 250 µM)	128 (≈ 250 µM)	128 (≈ 250 µM)	–	–
CC(C)O/N=C(\C(=O)N[C@@H]1C(=O)N2C(C(=O)O)=C(CSc3nncs3)OC[C@H]12)c1nsc(N)n1	32 (≈ 60.8 µM)	1 (≈ 1.9 µM)	128 (≈ 243 µM)	4 (≈ 7.6 µM)	1 (≈ 1.9 µM)	–	–
CCCCCO/N=C(\C(=O)N[C@@H]1C(=O)N2C(C(=O)O)=C(CSc3nncs3)OC[C@H]12)c1nsc(N)n1	64 (≈ 115 µM)	64 (≈ 115 µM)	128 (≈ 231 µM)	16 (≈ 28.8 µM)	32 (≈ 57.7 µM)	–	–
CC(C)CCO/N=C(\C(=O)N[C@@H]1C(=O)N2C(C(=O)O)=C(CSc3nncs3)OC[C@H]12)c1nsc(N)n1	128 (≈ 231 µM)	128 (≈ 231 µM)	128 (≈ 231 µM)	128 (≈ 231 µM)	128 (≈ 231 µM)	–	–
Nc1nc(/C(=N/OC2CCCC2)C(=O)N[C@@H]2C(=O)N3C(C(=O)O)=C(CSc4nncs4)OC[C@H]23)ns1	128 (≈ 232 µM)	8 (≈ 14.5 µM)	128 (≈ 232 µM)	16 (≈ 29 µM)	4 (≈ 7.24 µM)	–	–
Nc1nc(/C(=N/OC2CCCCC2)C(=O)N[C@@H]2C(=O)N3C(C(=O)O)=C(CSc4nncs4)OC[C@H]23)ns1	128 (≈ 226 µM)	16 (≈ 28.2 µM)	128 (≈ 226 µM)	16 (≈ 28.2 µM)	16 (≈ 28.2 µM)	–	–
CO/N=C(\C(=O)N[C@@H]1C(=O)N2C(C(=O)O)=C(CSc3nnnn3CCO)OC[C@H]12)c1nsc(N)n1	0.5 (≈ 0.95 µM)	16 (≈ 30.4 µM)	2 (≈ 3.8 µM)	16 (≈ 30.4 µM)	32 (≈ 60.8 µM)	4	–
CCO/N=C(\C(=O)N[C@@H]1C(=O)N2C(C(=O)O)=C(CSc3nnnn3CCO)OC[C@H]12)c1nsc(N)n1	0.5 (≈ 0.925 µM)	0.125 (≈ 0.231 µM)	2 (≈ 3.7 µM)	64 (≈ 118 µM)	64 (≈ 118 µM)	–	–
CC(C)O/N=C(\C(=O)N[C@@H]1C(=O)N2C(C(=O)O)=C(CSc3nnnn3CCO)OC[C@H]12)c1nsc(N)n1	0.5 (≈ 0.902 µM)	0.125 (≈ 0.225 µM)	0.5 (≈ 0.902 µM)	8 (≈ 14.4 µM)	32 (≈ 57.7 µM)	–	–
CCCCCO/N=C(\C(=O)N[C@@H]1C(=O)N2C(C(=O)O)=C(CSc3nnnn3CCO)OC[C@H]12)c1nsc(N)n1	16 (≈ 27.5 µM)	0.125 (≈ 0.215 µM)	8 (≈ 13.7 µM)	4 (≈ 6.87 µM)	32 (≈ 54.9 µM)	–	2
CC(C)CCO/N=C(\C(=O)N[C@@H]1C(=O)N2C(C(=O)O)=C(CSc3nnnn3CCO)OC[C@H]12)c1nsc(N)n1	4 (≈ 6.87 µM)	0.125 (≈ 0.215 µM)	16 (≈ 27.5 µM)	8 (≈ 13.7 µM)	64 (≈ 110 µM)	–	2
Nc1nc(/C(=N/OC2CCCC2)C(=O)N[C@@H]2C(=O)N3C(C(=O)O)=C(CSc4nnnn4CCO)OC[C@H]23)ns1	1 (≈ 1.72 µM)	0.125 (≈ 0.215 µM)	4 (≈ 6.89 µM)	2 (≈ 3.44 µM)	8 (≈ 13.8 µM)	–	2
Nc1nc(/C(=N/OC2CCCCC2)C(=O)N[C@@H]2C(=O)N3C(C(=O)O)=C(CSc4nnnn4CCO)OC[C@H]23)ns1	2 (≈ 3.36 µM)	64 (≈ 108 µM)	32 (≈ 53.8 µM)	64 (≈ 108 µM)	128 (≈ 215 µM)	–	–
CC(C)(O/N=C(\C(=O)N[C@@H]1C(=O)N2C(C(=O)[O-])=C(C[n+]3ccccc3)CS[C@H]12)c1csc(N)n1)C(=O)O [CEFTAZIDIME]	2 (≈ 3.66 µM)	16 (≈ 29.3 µM)	4 (≈ 7.32 µM)	16 (≈ 29.3 µM)	32 (≈ 58.5 µM)	–	–
